This note sets out measurements from ChEMBL document CHEMBL4665723, “Evaluation of the effect of synthetic compounds derived from azidothymidine on MDA-MB-231 type breast cancer cells” (Bioorg Med Chem Lett, 2020).

Activity calls are given as the source filed them. No cut-off for these calls is given here.

One assay relates to MCF7. Kind of assay: Antiproliferative activity against human MCF7 cells assessed as inhibition of cell growth. It counts as functional, cell-based.
Assay [1] concerns MDA-MB-231. In words: Antiproliferative activity against human MDA-MB-231 cells incubated for 24 hrs by MTT assay. Type of assay: functional, cell-based. The following applies: MDA-MB-231, 24 h. In general terms: Tetrazolium assays rely on reduction of a dye to a coloured formazan, in cell work by metabolically active cells.
The subject of assay [2] is MDA-MB-231. In words: Induction of apoptosis in human MDA-MB-231 cells assessed as early apoptotic cells at 12.5 uM incubated for 48 hrs by AnnexinV and 7AAD staining based flow cytometric analysis. It counts as functional, cell-based. (A flow cytometer gives signals particle by particle.)
In assay [3] the test system is MDA-MB-231. In words: Induction of cell cycle arrest in human MDA-MB-231 cells assessed as accumulation in G0/G1 phase at 12.5 uM incubated for 48 hrs by PI staining based flow cytometric analysis (reference value: 51.75%). It counts as functional.
Assay [4] relates to MDA-MB-231. In words: Induction of apoptosis in human MDA-MB-231 cells assessed as late apoptotic cells at 12.5 uM incubated for 48 hrs by AnnexinV and 7AAD staining based flow cytometric analysis. It counts as functional, cell-based.
Assay [5] has as its system MDA-MB-231. In words: Induction of cell cycle arrest in human MDA-MB-231 cells assessed as accumulation in S phase at 12.5 uM incubated for 48 hrs by PI staining based flow cytometric analysis (reference value: 19.35%). It counts as functional.
In assay [6] the test system is MDA-MB-231. In words: Antiproliferative activity against human MDA-MB-231 cells incubated for 48 hrs by MTT assay. It counts as functional, cell-based. As to conditions: MDA-MB-231, 48 h.
Another assay concerns 5637. In words: Antiproliferative activity against human 5637 cells assessed as inhibition of cell growth incubated for 24 hrs by MTT assay. Type of assay: functional, cell-based. As to conditions: Homo sapiens, 5637, 24 h.
The test system of assay [7] is MDA-MB-231. In words: Induction of cell cycle arrest in human MDA-MB-231 cells assessed as accumulation in G2/M phase at 12.5 uM incubated for 48 hrs by PI staining based flow cytometric analysis (reference value: 19.7%). Type of assay: functional.
For assay [8], the system named is MDA-MB-231. Kind of assay: Antiproliferative activity against human MDA-MB-231 cells assessed as inhibition of cell growth at >25 uM incubated for 24 hrs by MTT assay relative to control. Type of assay: functional. The following applies: dose microM >25.
Assay [9] relates to MDA-MB-231. Kind of assay: Antiproliferative activity against human MDA-MB-231 cells at >12.5 uM incubated for 48 hrs by MTT assay. The following applies: dose microM >12.5, time 48.0 hrs. It counts as functional, cell-based.
Assay [10] relates to MDA-MB-231. In words: Antiproliferative activity against human MDA-MB-231 cells at 6.25 to 100 uM incubated for 24 to 48 hrs by MTT assay. It counts as functional, cell-based. As to conditions: dose microM 6.25-100, time hrs 24-48.

With `CNCCC(Oc1ccc(C(F)(F)F)cc1)c1ccccc1` (configuration not stated) [FLUOXETINE], the 50% inhibitory concentration (IC50) (as a rule, the point on the concentration scale where inhibition reaches its midpoint) in the assay with MCF7 came to 0.01 µM.
Consider `Cc1cn([C@H]2C[C@H](n3cc(CO)nn3)[C@@H](C[Te]c3ccccc3)O2)c(=O)[nH]c1=O`, for which the half-inhibitory concentration (IC50) in the assay with MDA-MB-231 [1] amounted to 24.9 µM; with MDA-MB-231 [6] it was 11.8 µM; in the assay with 5637 it was 8.09 µM. The outcome in the assay on MDA-MB-231 [2] and in the assay with MDA-MB-231 [4] was inactive. Besides, the Activity in the assay on MDA-MB-231 [3] is given as 40.55%; in the assay with MDA-MB-231 [5] it was 27.3%; in the assay with MDA-MB-231 [7] it was 16.9%. In addition, the “inhibition (INH)” value with MDA-MB-231 [8] was found to be 50%. The result with MDA-MB-231 [9] was Active.
Consider `Cc1cn([C@H]2C[C@H](N=[N+]=[N-])[C@@H](CO)O2)c(=O)[nH]c1=O`, for which the outcome with MDA-MB-231 [10] was inactive.
Turning to `Cc1cn([C@H]2C[C@H](n3cc(CCCO)nn3)[C@@H](C[Te]c3ccccc3)O2)c(=O)[nH]c1=O`, the IC50 with MDA-MB-231 [1] was 21.6 µM; in the assay with MDA-MB-231 [6] it was 9.62 µM; with 5637, 1.99 µM. In addition, the outcome with MDA-MB-231 [2] and in the assay with MDA-MB-231 [4] was inactive. Also, the Activity with MDA-MB-231 [3] was 44.9%; in the assay with MDA-MB-231 [5], 28.2%; in the assay with MDA-MB-231 [7], 19.95%. Moreover, the “inhibition (INH)” value in the assay with MDA-MB-231 [8] is listed as 50%. For the same molecule, the result in the assay on MDA-MB-231 [9] was Active.
